Laboratory results: DBAASP
Values after ≈ are worked out from the molar mass of the structure shown.

Columns and labels:
Assay in all cases: ≥ marks a high value that may be exact or a test limit, other limits are often not marked, values filed in µg/mL are converted to µM
Bacillus megaterium Bm11 = system: Bacillus megaterium Bm11
[1] = system: Candida albicans ATCC 10231
[2] = system: Escherichia coli ATCC 25922
[3] = system: Staphylococcus aureus Cowan 1
Staphylococcus capitis 1 = system: Staphylococcus capitis 1
[4] = system: Yersinia pseudotuberculosis YPIII
Bacillus cereus = system: Bacillus cereus
Escherichia coli = system: Escherichia coli
Leuconostoc lactis = system: Leuconostoc lactis
Listeria innocua = system: Listeria innocua
Micrococcus luteus = system: Micrococcus luteus
Pasteurella multocida = system: Pasteurella multocida
Staphylococcus aureus = system: Staphylococcus aureus
[5] = system: Staphylococcus epidermidis
Streptococcus uberis = system: Streptococcus uberis
[6] = system: Aeromonas hydrophila BCRC 13018
[7] = system: Enterococcus faecalis BCRC 10066
[8] = system: Pseudomonas aeruginosa ATCC 19660
[9] = system: Streptococcus agalactiae 819
[10] = system: Streptococcus agalactiae BCRC 10787
Vibrio alginolyticus = system: Vibrio alginolyticus
Vibrio vulnificus 204 = system: Vibrio vulnificus 204
[11] = system: Aspergillus flavus KCTC 7375
[12] = system: Bacillus megaterium KCTC 1096
[13] = system: Bacillus subtilis KCTC 1918
[14] = system: Candida albicans KCTC 7121
[15] = system: Escherichia coli KCTC 1682
[16] = system: Fusarium oxysporum KCTC 6084
Proteus vulgaris = system: Proteus vulgaris
[17] = system: Pseudomonas aeruginosa KCTC 1637
[18] = system: Staphylococcus aureus KCTC 1621
[19] = system: Trichosporon beigelii KCTC 7251
Candida albicans = system: Candida albicans
Klebsiella pneumoniae = system: Klebsiella pneumoniae
Proteus mirabilis = system: Proteus mirabilis
Pseudomonas aeruginosa = system: Pseudomonas aeruginosa
Salmonella typhimurium = system: Salmonella typhimurium
Serratia marcescens = system: Serratia marcescens
Shigella dysenteriae = system: Shigella dysenteriae

CC[C@H](C)[C@H](NC(=O)CNC(=O)[C@H](CO)NC(=O)[C@H](CC(C)C)NC(=O)[C@H](C)NC(=O)[C@H](CCCN=C(N)N)NC(=O)CNC(=O)[C@@H](NC(=O)[C@H](CC(C)C)NC(=O)[C@@H]1CCCN1C(=O)[C@H](CC(C)C)NC(=O)[C@@H](N)Cc1ccccc1)[C@@H](C)CC)C(=O)N[C@@H](CC(C)C)C(N)=O [FLPLIGRALSGIL]
MIC (Bacillus megaterium Bm11): 5 µM (≈ 6.84 µg/mL)
MIC [1]: 10 µM (≈ 13.7 µg/mL)
MIC [2]: > 40 µM
MIC [3]: 20 µM (≈ 27.4 µg/mL)
MIC (Staphylococcus capitis 1): 20 µM (≈ 27.4 µg/mL)
MIC [4]: ≥ 40 µM

CC[C@H](C)[C@H](NC(=O)[C@@H](NC(=O)[C@H](C)NC(=O)[C@H](C)NC(=O)[C@@H](NC(=O)[C@H](CCCCN)NC(=O)[C@H](CCCCN)NC(=O)[C@@H](NC(=O)[C@@H](NC(=O)[C@H](CC(=O)O)NC(=O)[C@H](Cc1ccccc1)NC(=O)[C@H](CC(C)C)NC(=O)CN)C(C)C)[C@@H](C)CC)C(C)C)C(C)C)C(=O)NCC(=O)NCC(=O)N[C@@H](CC(C)C)C(N)=O [GLFDVIKKVAAVIGGL]
MIC (Bacillus cereus): 31.3 µM (≈ 50 µg/mL)
MIC (Escherichia coli): > 62.5 µM
MIC (Leuconostoc lactis): 3.75 µM (≈ 6 µg/mL)
MIC (Listeria innocua): ≥ 62.5 µM
MIC (Micrococcus luteus): 7.5 µM (≈ 12 µg/mL)
MIC (Pasteurella multocida): ≥ 62.5 µM
MIC (Staphylococcus aureus): 15.6 µM (≈ 25 µg/mL)
MIC [5]: 15.6 µM (≈ 25 µg/mL)
MIC (Streptococcus uberis): 15.6 µM (≈ 25 µg/mL)

CC[C@H](C)[C@H](NC(=O)[C@H](C)NC(=O)[C@H](CC(=O)O)NC(=O)[C@H](Cc1c[nH]c2ccccc12)NC(=O)[C@@H](NC(=O)[C@H](CS)NC(=O)[C@H](CCC(=O)O)NC(=O)CN)[C@@H](C)CC)C(=O)N[C@@H](Cc1ccccc1)C(=O)N[C@@H](Cc1cnc[nH]1)C(=O)NCC(=O)N[C@@H](C)C(=O)N[C@@H](CCCCN)C(=O)N[C@@H](Cc1cnc[nH]1)C(=O)N[C@@H](Cc1ccccc1)C(=O)N[C@@H](CC(C)C)C(=O)N[C@@H](Cc1cnc[nH]1)C(=O)N[C@@H](CCCN=C(N)N)C(=O)N[C@@H](CC(C)C)C(=O)N[C@H](C(=O)N[C@@H](CC(N)=O)C(=O)N1CCC[C@H]1C(N)=O)C(C)C [GECIWDAIFHGAKHFLHRLVNP]
MIC [6]: 7.62 µM (≈ 19.5 µg/mL)
MIC [7]: 7.62 µM (≈ 19.5 µg/mL)
MIC [8]: 7.62 µM (≈ 19.5 µg/mL)
MIC [9]: 7.62 µM (≈ 19.5 µg/mL)
MIC [10]: 7.62 µM (≈ 19.5 µg/mL)
MIC (Vibrio alginolyticus): 7.62 µM (≈ 19.5 µg/mL)
MIC (Vibrio vulnificus 204): 7.62 µM (≈ 19.5 µg/mL)

CC[C@H](C)[C@H](NC(=O)[C@H](CCCCN)NC(=O)[C@H](CCCCN)NC(=O)[C@H](Cc1ccccc1)NC(=O)[C@H](CC(C)C)NC(=O)[C@H](CCCCN)NC(=O)[C@@H](N)Cc1c[nH]c2ccccc12)C(=O)N1CCC[C@H]1C(=O)N[C@@H](CCCCN)C(=O)N[C@@H](Cc1ccccc1)C(=O)N[C@@H](CC(C)C)C(=O)N[C@@H](Cc1cnc[nH]1)C(=O)N[C@@H](CC(C)C)C(=O)N[C@@H](C)C(=O)N[C@@H](CCCCN)C(=O)N[C@@H](CCCCN)C(=O)N[C@@H](Cc1ccccc1)C(N)=O [WKLFKKIPKFLHLAKKF]
MIC [11]: ≥ 50 µM
MIC [12]: 1.56 µM (≈ 3.39 µg/mL)
MIC [13]: 0.78 µM (≈ 1.69 µg/mL)
MIC [14]: ≥ 50 µM
MIC [15]: 6.25 µM (≈ 13.6 µg/mL)
MIC [16]: ≥ 50 µM
MIC (Proteus vulgaris): 1.56 µM (≈ 3.39 µg/mL)
MIC [17]: 1.56 µM (≈ 3.39 µg/mL)
MIC [18]: 3.12 µM (≈ 6.79 µg/mL)
MIC [19]: ≥ 50 µM

CC[C@H](C)[C@H](NC(=O)CNC(=O)[C@H](CO)NC(=O)[C@H](CC(C)C)NC(=O)[C@@H](NC(=O)[C@H](CCCN=C(N)N)NC(=O)CNC(=O)[C@@H](NC(=O)[C@H](C)NC(=O)[C@@H]1CCCN1C(=O)[C@H](CC(C)C)NC(=O)[C@@H](N)Cc1ccccc1)[C@@H](C)CC)C(C)C)C(=O)N[C@@H](CC(C)C)C(N)=O [FLPAIGRVLSGIL]
MIC (Bacillus megaterium Bm11): 5 µM (≈ 6.77 µg/mL)
MIC [1]: 10 µM (≈ 13.5 µg/mL)
MIC [2]: > 40 µM
MIC [3]: ≥ 40 µM
MIC (Staphylococcus capitis 1): 20 µM (≈ 27.1 µg/mL)
MIC [4]: ≥ 40 µM

CC[C@H](C)[C@H](NC(=O)[C@H](CCCCN)NC(=O)[C@H](CCCCN)NC(=O)[C@H](Cc1ccccc1)NC(=O)[C@H](Cc1c[nH]c2ccccc12)NC(=O)[C@@H](N)CCCCN)C(=O)N1CCC[C@H]1C(=O)N[C@@H](CCCCN)C(=O)N[C@@H](Cc1ccccc1)C(=O)N[C@@H](CC(C)C)C(=O)N[C@@H](Cc1cnc[nH]1)C(=O)N[C@@H](CC(C)C)C(=O)N[C@@H](C)C(=O)N[C@@H](CCCCN)C(=O)N[C@@H](CCCCN)C(=O)N[C@@H](Cc1ccccc1)C(N)=O [KWFKKIPKFLHLAKKF]
MIC [11]: ≥ 100 µM
MIC [12]: 1.56 µM (≈ 3.21 µg/mL)
MIC [13]: 0.78 µM (≈ 1.61 µg/mL)
MIC [14]: ≥ 50 µM
MIC [15]: 12.5 µM (≈ 25.7 µg/mL)
MIC [16]: ≥ 100 µM
MIC (Proteus vulgaris): 3.12 µM (≈ 6.43 µg/mL)
MIC [17]: 1.56 µM (≈ 3.21 µg/mL)
MIC [18]: 3.12 µM (≈ 6.43 µg/mL)
MIC [19]: ≥ 50 µM

CC(C)C[C@@H]1NC(=O)CNC(=O)[C@H](CO)NC(=O)[C@H](C(C)C)NC(=O)CNC(=O)[C@@H](NC(=O)[C@H](CC(C)C)NC(=O)[C@@H](NC(=O)[C@H](CCCCN)NC(=O)[C@H](CCCCN)NC(=O)CNC(=O)[C@@H](NC(=O)CNC(=O)[C@H](CC(C)C)NC(=O)[C@@H](NC(=O)[C@H](CCCCN)NC(=O)[C@H](CO)NC(=O)[C@H](CC(C)C)NC(=O)[C@H](CC(C)C)NC(=O)CN)C(C)C)C(C)C)C(C)C)CSSC[C@@H](C(=O)O)NC1=O [GLLSKVLGVGKKVLCGVSGLC]
MIC (Candida albicans): 73.9 µM (≈ 150 µg/mL)
MIC (Escherichia coli): 5 µM (≈ 10.1 µg/mL)
MIC (Klebsiella pneumoniae): 4.92 µM (≈ 9.99 µg/mL)
MIC (Micrococcus luteus): 1.23 µM (≈ 2.5 µg/mL)
MIC (Proteus mirabilis): ≥ 98.5 µM
MIC (Pseudomonas aeruginosa): 49.2 µM (≈ 99.9 µg/mL)
MIC (Salmonella typhimurium): 11.1 µM (≈ 22.5 µg/mL)
MIC (Serratia marcescens): ≥ 98.5 µM
MIC (Shigella dysenteriae): 4.92 µM (≈ 9.99 µg/mL)
MIC (Staphylococcus aureus): 15 µM (≈ 30.4 µg/mL)

CC[C@H](C)[C@H](NC(=O)CNC(=O)[C@H](CCC(=O)O)NC(=O)[C@@H](NC(=O)[C@@H](NC(=O)CNC(=O)[C@H](CO)NC(=O)[C@H](C)NC(=O)[C@H](CC(C)C)NC(=O)[C@H](CC(=O)O)NC(=O)CNC(=O)[C@H](C)NC(=O)[C@H](C)NC(=O)[C@H](CCC(N)=O)NC(=O)[C@H](CCCCN)NC(=O)[C@@H](NC(=O)[C@H](CCCCN)NC(=O)[C@H](CCC(N)=O)NC(=O)[C@H](Cc1c[nH]c2ccccc12)NC(=O)[C@H](CC(C)C)NC(=O)CN)[C@@H](C)CC)[C@@H](C)CC)C(C)C)C(=O)N[C@@H](CCCCN)C(=O)N[C@@H](CO)C(N)=O [GLWQKIKQAAGDLASGIVEGIKS]
MIC (Bacillus cereus): ≥ 42.2 µM
MIC (Escherichia coli): 21.1 µM (≈ 50 µg/mL)
MIC (Leuconostoc lactis): ≥ 42.2 µM
MIC (Listeria innocua): ≥ 42.2 µM
MIC (Micrococcus luteus): 10.5 µM (≈ 25 µg/mL)
MIC (Pasteurella multocida): ≥ 42.2 µM
MIC (Staphylococcus aureus): > 42.2 µM
MIC [5]: ≥ 42.2 µM
MIC (Streptococcus uberis): ≥ 42.2 µM
